{
  "source": "the NIST ThermoML archive (doi:10.1021/je200640q)",
  "key": {"[1]": {"conditions": "Crystal; DTA"}, "[2]": {"assay": "Molar enthalpy of transition or fusion", "conditions": "Crystal; DSC"}},
  "note": "± gives the expanded uncertainty stated by the source.",
  "data": [
    {"smiles": "CC(C)(c1ccc(O)cc1)c1ccc(O)cc1", "note": "[2,2-(4',4''-dihydroxy)diphenylpropane]", "values": [
      {"measurement": "Normal melting temperature", "setting": "[1]", "value": "156.50 ± 0.5", "unit": "°C"},
      {"measurement": "Molar enthalpy of transition or fusion", "setting": "[2]", "value": "7.34 ± 0.215", "unit": "kcal/mol"}
    ]}
  ]
}
